“And” between values parts separate entries of the source, which are not always exact repeats. Equal values may be shown once.
Legend:
human P450 1B1 [1] = biological target: T1, human P450 1B1 (Homo sapiens, UniProt Q16678); experiment: biochemical
T1 sequence (Q16678 1-543): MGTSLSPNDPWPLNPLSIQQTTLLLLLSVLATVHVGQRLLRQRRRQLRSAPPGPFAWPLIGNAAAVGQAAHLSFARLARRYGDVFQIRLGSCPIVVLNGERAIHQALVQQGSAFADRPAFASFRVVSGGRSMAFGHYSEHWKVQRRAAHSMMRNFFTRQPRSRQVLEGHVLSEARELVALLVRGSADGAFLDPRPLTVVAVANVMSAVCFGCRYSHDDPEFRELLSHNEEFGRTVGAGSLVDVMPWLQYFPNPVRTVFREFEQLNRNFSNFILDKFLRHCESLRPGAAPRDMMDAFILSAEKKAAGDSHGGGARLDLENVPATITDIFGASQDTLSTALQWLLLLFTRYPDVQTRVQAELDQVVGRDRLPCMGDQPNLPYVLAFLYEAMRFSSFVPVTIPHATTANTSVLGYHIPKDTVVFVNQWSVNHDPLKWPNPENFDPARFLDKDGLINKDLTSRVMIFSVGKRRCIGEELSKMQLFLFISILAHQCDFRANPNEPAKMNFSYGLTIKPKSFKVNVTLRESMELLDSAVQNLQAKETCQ

human P450 1B1 [2] = biological target: T1, human P450 1B1; experiment: Spectral binding titration; conditions: for Reverse Type I spectra ΔAmax/Ks (magnitude of spectral binding) / Reverse Type I spectra ΔAmax: purified P450 1B1 1.0 μM, ND = not detected at 100 μM; for Reverse Type I spectra ΔAmax: means ± SEs
P450 1A2 = P450 1A2 (Homo sapiens, UniProt P05177); experiment: Inhibition of EROD activity catalyzed by P450 1A2; assay type: biochemical; conditions: Figure 4
Sequence of P450 1A2 (P05177 whole entry): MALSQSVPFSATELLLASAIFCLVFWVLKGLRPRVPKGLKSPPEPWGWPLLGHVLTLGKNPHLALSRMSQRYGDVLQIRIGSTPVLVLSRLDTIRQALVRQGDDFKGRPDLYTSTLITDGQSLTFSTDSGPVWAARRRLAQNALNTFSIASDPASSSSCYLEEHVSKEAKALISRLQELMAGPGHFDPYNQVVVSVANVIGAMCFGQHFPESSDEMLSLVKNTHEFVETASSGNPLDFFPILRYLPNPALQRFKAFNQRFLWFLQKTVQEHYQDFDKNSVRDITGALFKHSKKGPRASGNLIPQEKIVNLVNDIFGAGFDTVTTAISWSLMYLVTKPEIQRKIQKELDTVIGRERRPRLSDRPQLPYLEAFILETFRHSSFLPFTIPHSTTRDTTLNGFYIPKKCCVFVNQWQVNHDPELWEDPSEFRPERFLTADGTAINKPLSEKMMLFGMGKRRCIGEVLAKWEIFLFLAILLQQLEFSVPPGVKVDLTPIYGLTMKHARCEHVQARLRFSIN

IC50 (human P450 1B1 [1])	Kd (human P450 1B1 [2])	inhibition of P450 1A2 EROD (in words) (P450 1A2)	Reverse Type I spectra ΔAmax (human P450 1B1 [2]; listed as Flavone)	SMILES	Reverse Type I spectra ΔAmax/Ks (magnitude of spectral binding) (human P450 1B1 [2])	Reverse Type I spectra ΔAmax (human P450 1B1 [2])	spectral interaction with P450 1B1 (in words) (human P450 1B1 [2]; up to 100 μM)
				C#CCOCc1ccccc1-c1ccccc1 [2BMPE, 2-biphenyl methyl propargyl ether]	0.0009	0.130 ± 0.009	
				C#CCOc1ccccc1-c1ccccc1OCC#C [22BDPE, 2,2-biphenyl dipropagyl ether]	0.0006	0.018 ± 0.001	
				C[C@]12CC[C@@H]3c4ccc(O)cc4CC[C@H]3[C@@H]1CC[C@@H]2O [E2, 17β-estradiol, reference compound]	0.0005	0.039 ± 0.007	
3.7 ± 0.5 µM	140 ± 15 µM			COc1cccc(-c2cc(=O)c3ccc(O)c(O)c3o2)c1 [3M78DHF, 3′-methoxy-7,8-dihydroxyflavone]	0.0003	0.044 ± 0.005	
				COc1cc(C=Cc2ccc(OC)cc2OC)cc(OC)c1 [TMS, 2,4,3′,5′-tetramethoxystilbene, reference compound]	0.0110		
1.2 ± 0.2 µM				C#Cc1ccc2ccccc2c1 [2EN, 2-ethynylnaphthalene]	0.0033	0.049 ± 0.002	
~26 µM and 26 µM		weak		c1ccc2ccccc2c1 [naphthalene, reference compound]			
				C#CCOc1ccc(-c2ccccc2)cc1 [4BPE, 4-biphenyl propargyl ether]	0.0007	0.056 ± 0.010	
			0.026	O=c1cc(-c2ccccc2)oc2ccccc12 [flavone, reference compound]	0.0006	0.026 ± 0.002	
19 ± 2.3 µM	190 ± 17 µM			COc1ccc(-c2cc(=O)c3ccc(O)c(O)c3o2)cc1OC [34DM78DHF, 3′,4′-dimethoxy-7,8-dihydroxyflavone]	0.0003	0.053 ± 0.003	
1.2 ± 0.2 µM	28 ± 3.3 µM			Oc1ccc(/C=C/c2cc(O)cc(O)c2)cc1 [resveratrol (Res), resveratrol, reference compound]	0.0012	0.034 ± 0.004	
				C#CCOc1ccccc1-c1ccccc1 [2BPE, 2-biphenyl propargyl ether]	0.0010	0.110 ± 0.009	
0.15 ± 0.02 µM	51 ± 4.1 µM			COc1cccc(-c2cc(=O)c3ccccc3o2)c1 [3MF, 3′-methoxyflavone]	0.0006	0.029 ± 0.001	
				C#CCOCc1ccc(-c2ccccc2)cc1 [4BMPE, 4-biphenyl methyl propargyl ether]	0.0055	0.071 ± 0.002	
0.32 ± 0.06 µM	56 ± 8 µM			COc1ccccc1-c1cc(=O)c2ccccc2o1 [2MF, 2′-methoxyflavone]	0.0013	0.070 ± 0.005	
0.0041 ± 0.0004 µM	13 ± 1.2 µM			O=c1cc(-c2ccccc2)oc2ccc3ccccc3c12 [BNF, β–naphthoflavone, reference compound]	0.0061	0.079 ± 0.009	
0.23 ± 0.03 µM	66 ± 11 µM			COc1ccc(-c2cc(=O)c3ccccc3o2)cc1 [4MF, 4′-methoxyflavone]			
0.24 ± 0.02 µM	64 ± 10 µM			COc1ccccc1-c1cc(=O)c2c(O)cc(O)cc2o1 [2M57DHF, 2′-methoxy-5,7-dihydroxyflavone]	0.0016	0.100 ± 0.011	
1.1 ± 0.2 µM	56 ± 15 µM			COc1ccc(-c2cc(=O)c3ccc(O)c(O)c3o2)cc1 [4M78DHF]	0.0013	0.073 ± 0.009	
	2 ± 0.3 µM			COc1ccc(-c2cc(=O)c3c(O)cc(O)cc3o2)cc1OC [34DM57DHF, 3′,4′-dimethoxy-5,7-dihydroxyflavone]	0.0180	0.037 ± 0.002	
				O=c1cc(-c2ccccc2)oc2c1ccc1ccccc12 [ANF, α-naphthoflavone, reference compound]	0.0061	0.073 ± 0.007	
> 100 µM				COc1ccccc1-c1cc(=O)c2ccc(O)c(O)c2o1 [2M78DHF, 2′-methoxy-7,8-dihydroxyflavone]			did not show any detectable spectral interaction
2.2 ± 0.3 µM				C#Cc1ccc(-c2ccccc2)cc1 [4EB, 4-ethynylbiphenyl]	0.0030	0.023 ± 0.001	
0.11 ± 0.02 µM	20 ± 3 µM			COc1cccc(-c2cc(=O)c3c(O)cc(O)cc3o2)c1 [3M57DHF, 3′-methoxy-5,7-dihydroxyflavone]	0.0037	0.075 ± 0.008	
0.26 ± 0.03 µM	24 ± 3.2 µM			COc1ccc(-c2cc(=O)c3ccccc3o2)cc1OC [34DMF, 3′,4′-dimethoxyflavone]	0.0021	0.051 ± 0.003	
0.83 ± 0.14 µM	21 ± 1.1 µM			Oc1cc(O)cc(/C=C/c2ccc(O)c(O)c2)c1 [Piceatannol (Pice), Piceatannol, reference compound]	0.0016	0.034 ± 0.001	
				C#CCOc1ccc(-c2ccc(OCC#C)cc2)cc1 [44BDPE, 4,4-biphenyl dipropargyl ether]	0.0013	0.031 ± 0.002	

SMILES	IC50 (human P450 1B1 [1])	Kd (human P450 1B1 [2])	inhibition of P450 1A2 EROD (in words) (P450 1A2)	Reverse Type I spectra ΔAmax (human P450 1B1 [2]; listed as Flavone)	Reverse Type I spectra ΔAmax/Ks (magnitude of spectral binding) (human P450 1B1 [2])	Reverse Type I spectra ΔAmax (human P450 1B1 [2])	spectral interaction with P450 1B1 (in words) (human P450 1B1 [2]; up to 100 μM)
CC#Cc1ccc2c(ccc3ccccc32)c1 [2PPh, 2-(1-propynyl)phenanthrene]	0.15 ± 0.02 µM				0.0305	0.067 ± 0.005	
C#Cc1ccc2ccc3cccc4ccc1c2c34 [1EP, 1-ethynylpyrene]	0.036 ± 0.005 µM				0.0169	0.049 ± 0.005	
C#Cc1cc2cccc3ccc4cccc1c4c32 [4EP, 4-ethynylpyrene]	0.17 ± 0.03 µM				0.0130	0.052 ± 0.004	
C#Cc1cc2ccc3cccc4ccc(c1)c2c34 [2EP, 2-ethynylpyrene]	0.038 ± 0.004 µM				0.0209	0.071 ± 0.001	
C=Cc1ccc2ccc3cccc4ccc1c2c34 [1VP, 1-vinylpyrene]	0.15 ± 0.02 µM	4.4 ± 0.3 µM			0.0209	0.092 ± 0.003	
CC#Cc1cc2ccccc2c2ccccc12 [9PPh, 9-(1-propynyl)phenanthrene]	0.16 ± 0.03 µM				0.0153	0.049 ± 0.002	
CC#Cc1ccc2ccc3ccccc3c2c1 [3PPh, 3-(1-propynyl)phenanthrene]	0.067 ± 0.008 µM				0.0194	0.060 ± 0.006	
c1cc2ccc3cccc4ccc(c1)c2c34 [pyrene, reference compound]	0.025 ± 0.003 µM	1.3 ± 0.1 µM			0.0338	0.044 ± 0.001	
C#Cc1cc2ccccc2c2ccccc12 [9EPh, 9-ethynylphenanthrene]	0.12 ± 0.01 µM				0.0197	0.071 ± 0.004	
C#Cc1ccc2ccc3ccccc3c2c1 [3EPh, 3-ethynylphenanthrene]	0.16 ± 0.02 µM				0.0237	0.071 ± 0.001	
c1ccc2c(c1)ccc1ccccc12 [Phenanthrene, phenanthrene, reference compound]	0.51 ± 0.1 µM	14 ± 1.7 µM			0.0031	0.044 ± 0.002	
CC#Cc1ccc2ccc3cccc4ccc1c2c34 [1PP, 1-(1-propynyl)pyrene]	0.045 ± 0.005 µM				0.0156	0.042 ± 0.002	
c1ccc(-c2ccccc2)cc1 [biphenyl, reference compound]	19 ± 2.3 µM	140 ± 19 µM			0.0003	0.037 ± 0.008	
C#Cc1ccc2c(ccc3ccccc32)c1 [2EPh, 2-ethynylphenanthrene]	0.21 ± 0.03 µM				0.0190	0.080 ± 0.004	

— article PMC3845904 (Chemical research in toxicology, 2009)
